Results on nine compounds are retold here after patent publication US7071185B2, “1,2,3,4,7,8-hexahydro-6H-[1,4]diazepino[6,7,1-ij]quinoline derivatives as antipsychotic and antiobesity agents” (Wyeth, priority 2002, dated 2006).

Where a name gives a salt, the structure may show the parent alone. Read-outs that look alike come from different tables or passages of the source.

Series [1] addresses T1, human 5-hydroxytryptamine2C (h5HT2C) receptor (Homo sapiens, UniProt P28335).
T1 construct: expressed in transfected cells; host or cells: CHO (Chinese Hamster Ovary) cells; membrane preparation
T1 sequence (P28335 33-458): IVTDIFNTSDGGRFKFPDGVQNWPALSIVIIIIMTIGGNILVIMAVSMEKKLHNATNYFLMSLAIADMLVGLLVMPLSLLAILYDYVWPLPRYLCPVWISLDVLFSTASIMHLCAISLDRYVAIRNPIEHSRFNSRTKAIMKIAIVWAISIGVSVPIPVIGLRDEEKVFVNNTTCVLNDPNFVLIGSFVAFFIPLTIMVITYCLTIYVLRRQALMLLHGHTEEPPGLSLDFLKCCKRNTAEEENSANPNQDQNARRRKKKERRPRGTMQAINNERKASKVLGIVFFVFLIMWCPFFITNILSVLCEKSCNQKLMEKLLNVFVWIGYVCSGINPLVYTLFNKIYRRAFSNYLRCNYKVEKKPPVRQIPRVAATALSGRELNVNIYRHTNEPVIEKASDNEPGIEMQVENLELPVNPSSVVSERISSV
Put plainly: 5HT2C receptor binding ([125I]DOI displacement, CHO cell membranes).

Regarding `c1cc2c3c(c1)CC1CCCC1N3CCNC2` (stereo not drawn) [Example 1, trans isomer, Trans-1,2,3,4,8,8a,9,10,11,11a-decahydro-cyclopenta[b][1,4]diazapino[6,7,1-ij]quinoline], the Ki (usually a measure of affinity in units of concentration, obtained from inhibition or displacement) in series [1] was 71 nM. `c1cc2c3c(c1)CC1CCCC1N3CCNC2` (stereo not drawn) (as salt: HCl) [Example 1, trans isomer, Trans-1,2,3,4,8,8a,9,10,11,11a-decahydro-cyclopenta[b][1,4]diazapino[6,7,1-ij]quinoline]: the melting point (usually the temperature, or range, at which the solid turns liquid) was 190 °C (dec.). For `c1cc2c3c(c1)C[C@@H]1CCC[C@@H]1N3CCNC2` (relative stereo) [Example 1, cis isomer, Cis 1,2,3,4,8,8a,9,10,11,11a-decahydro-cyclopenta[b][1,4]diazepino[6,7,1-ij]quinoline], affinity in series [1] was put at a Ki of 118 nM. `c1cc2c3c(c1)C[C@H]1CCCC[C@H]1N3CCNC2` (relative stereo) [Example 2, cis isomer, (Cis)-1,2,3,4,8a,9,10,11,12,12a,-decahydro-8H-[1,4]diazepino[6,7,1-de]acridine] had a Ki in series [1] of 511 nM. In turn, `c1cc2c3c(c1)CC1CCCCC1N3CCNC2` (stereo not drawn) [Example 2, trans isomer, (Trans)-1,2,3,4,8a,9,10,11,12,12a,-decahydro-8H-[1,4]diazepino[6,7,1-de]acridine] had a melting point of 95 °C. In series [1], this compound displayed a Ki of 513 nM.

On to `c1cc2c3c(c1)C[C@@H]1CCC[C@@H]1N3CCNC2` (relative stereo) (as salt: HCl) [Example 1, cis isomer, Cis 1,2,3,4,8,8a,9,10,11,11a-decahydro-cyclopenta[b][1,4]diazepino[6,7,1-ij]quinoline], for which the melting point is 180 to 190 °C (dec.). Same read-out and setting: the same measure for `c1cc2c3c(c1)C[C@H]1CCCC[C@H]1N3CCNC2` (relative stereo) (as salt: HCl) [Example 2, cis isomer, (Cis)-1,2,3,4,8a,9,10,11,12,12a,-decahydro-8H-[1,4]diazepino[6,7,1-de]acridine]: 150 to 155 °C. On to `CSc1ccc2c(c1)C(N1CCN(C)CC1)Cc1ccccc1S2` (stereo not shown) [Methiothepin, reference compound], for which the Ki in series [1] ([125I]DOI binding, CHO membranes expressing h5HT2C, read-out: Ki (95% confidence interval), reference compounds) amounted to 4.6 nM.

As to `COc1cc(CC(C)N)c(OC)cc1I` (stereo not shown) [[^125I] DOI, reference compound], the dissociation constant Kd (usually the free concentration of one partner at which half of the binding sites on the other are occupied at equilibrium, for simple one-to-one binding) in series [1] (read-out: dissociation constant, KD of [125I] DOI at the human serotonin 5HT2C receptor, saturation binding with increasing concentrations of [125I] DOI) is 0.4 nM.
